Data taken from patent US9586952B2, “Polycyclic estrogen receptor modulators and uses thereof” (SERAGON PHARMACEUTICALS, INC., priority 2013, dated 2017).

Legend:
[1] = test system: MCF-7 cells; assay: MCF7 Viability Assay (Breast Cancer Cell Viability Assay); type: cell-based; details: 5 days' compound exposure, CellTiter-Glo; for IC50: Homo sapiens, MCF7, 120 h
In short: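 Cells (320 per well, RPMI with 10% FBS and 20 mM HEPES) adhered overnight, then were exposed 5 days to an eleven-point semilog compound series, 0.3-0.000003 μM final. Viability read by CellTiter-Glo luminescence, background-subtracted, expressed as % of untreated cells.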

[2] = target: T1, ER-α (Homo sapiens, UniProt P03372); assay: Breast Cancer Cell ER-α In Cell Western Assay (SP1); type: cell-based; details: MCF-7 cells, 4 or 24 hr post compound addition, SP1 antibody; for Emax: MCF7, read-out: ER-α In Cell Western Assay (SP1) Max Response; for DC50: read-out: ER-α In Cell Western Assay (SP1) IC50
T1 construct: endogenous in cells; host or cells: MCF-7
T1 sequence (P03372 1-595): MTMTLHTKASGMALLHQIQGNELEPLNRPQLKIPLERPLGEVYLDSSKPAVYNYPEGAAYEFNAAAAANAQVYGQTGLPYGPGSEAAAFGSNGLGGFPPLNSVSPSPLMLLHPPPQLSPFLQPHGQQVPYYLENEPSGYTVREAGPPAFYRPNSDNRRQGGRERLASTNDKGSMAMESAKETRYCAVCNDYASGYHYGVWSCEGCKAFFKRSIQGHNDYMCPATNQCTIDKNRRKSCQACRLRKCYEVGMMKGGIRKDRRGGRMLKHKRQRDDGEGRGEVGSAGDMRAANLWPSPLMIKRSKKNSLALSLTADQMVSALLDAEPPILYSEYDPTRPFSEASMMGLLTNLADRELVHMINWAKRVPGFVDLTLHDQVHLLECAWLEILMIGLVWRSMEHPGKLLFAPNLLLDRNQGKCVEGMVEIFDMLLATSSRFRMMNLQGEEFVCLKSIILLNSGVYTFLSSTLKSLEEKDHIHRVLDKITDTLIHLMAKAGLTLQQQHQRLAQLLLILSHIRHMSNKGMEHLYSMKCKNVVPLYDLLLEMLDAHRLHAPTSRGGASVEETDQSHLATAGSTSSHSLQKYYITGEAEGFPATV
In short: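 MCF-7 cells in RPMI with 10% charcoal-stripped FBS received an eleven-point semilog series, 0.3-0.000003 μM final, for 4 or 24 hr. After fixation, ER-α stained with SP1 antibody and IRDye 800 CW, DNA with DRAQ5; % ER = 800/700 nm intensity ratio relative to untreated cells.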

Compound | MCF7 Viability Assay Max Response [1] | IC50 [1] [nM] | Emax [2] [%] | DC50 [2] [nM]
CC/C(=C(/c1ccc(/C=C/C(=O)O)cc1)c1ccc(-c2cncs2)cc1F)c1ccccc1 [Example 20, (E)-3-(4-((E)-1-(2-Fluoro-4-(thiazol-5-yl)phenyl)-2-phenylbut-1-en-1-yl)phenyl)acrylic acid] | ++ (++ = a single % value ≧ 40%) | ≤ 100 | ≥ 40 | ≤ 100
COc1ccc(/C(=C(\c2ccc(/C=C/C(=O)O)cc2)c2ccc(N3CCOCC3)cc2)C2CCC2)c(Cl)c1 [Example 4, (E)-3-(4-((E)-2-(2-Chloro-4-methoxyphenyl)-2-cyclobutyl-1-(4-morpholinophenyl)vinyl)phenyl)acrylic acid] | ++ (++ = a single % value ≧ 40%) | ≤ 100 | ≥ 40 | ≤ 100
CC/C(=C(/c1ccc(/C=C/C(=O)O)cc1)c1ccc(-c2cncs2)cc1)c1ccc2occc2c1 [Example 31, (E)-3-(4-((E)-2-(Benzofuran-5-yl)-1-(4-(thiazol-5-yl)phenyl)but-1-en-1-yl)phenyl)acrylic acid] | ++ (++ = a single % value ≧ 40%) | ≤ 100 | ≥ 40 | ≤ 100
O=C(O)/C=C/c1ccc(/C(=C(\c2ccc(F)cc2Cl)C2CCC2)c2ccc(-c3nn[nH]n3)cc2)cc1 [Example 49, (E)-3-(4-((E)-1-(4-(2H-Tetrazol-5-yl)phenyl)-2-(2-chloro-4-fluorophenyl)-2-cyclobutylvinyl)phenyl)acrylic acid] | + (+ = a single % value < 40%) | > 100 | < 40 | > 100
O=C(O)/C=C/c1ccc(/C(=C(\c2ncc(C(F)(F)F)cc2Cl)C2CCC2)c2ccc(-c3cn[nH]c3)cc2)cc1 [Example 58, (E)-3-(4-((E)-1-(4-(1H-Pyrazol-4-yl)phenyl)-2-(3-chloro-5-(trifluoromethyl)pyridin-2-yl)-2-cyclobutylvinyl)phenyl)acrylic acid] | ++ (++ = a single % value ≧ 40%) | ≤ 100 | ≥ 40 | ≤ 100
COc1ccc(/C(=C(\c2ccc(/C=C/C(=O)O)cc2)c2ccc(-c3cncs3)cc2)C2CCC2)c(C)c1 [Example 54, (E)-3-(4-((E)-2-Cyclobutyl-2-(4-methoxy-2-methylphenyl)-1-(4-(thiazol-5-yl)phenyl)vinyl)phenyl)acrylic acid] | ++ (++ = a single % value ≧ 40%) | ≤ 100 | ≥ 40 | ≤ 100
N#Cc1cc(Cl)ccc1/C(=C(\c1ccc(/C=C/C(=O)O)cc1)c1ccc(N2CCOCC2)cc1)C1CCC1 [Example 46, (E)-3-(4-((E)-2-(4-Chloro-2-cyanophenyl)-2-cyclobutyl-1-(4-morpholinophenyl)vinyl)phenyl)acrylic acid] | ++ (++ = a single % value ≧ 40%) | ≤ 100 | ≥ 40 | ≤ 100
O=C(O)/C=C/c1ccc(/C(=C(\c2ccccc2)C2CCC2)c2ccc(N3CCNCC3)cc2)cc1 [Example 65, (E)-3-(4-((E)-2-Cyclobutyl-2-phenyl-1-(4-(piperazin-1-yl)phenyl)vinyl)phenyl)acrylic acid] | ++ (++ = a single % value ≧ 40%) | ≤ 100 | ≥ 40 | ≤ 100
CC/C(=C(/c1ccc(/C=C/C(=O)O)cc1)c1ccc(-c2cncs2)cc1)c1ccccc1 [Example 9, (E)-3-(4-((E)-2-Phenyl-1-(4-(thiazol-5-yl)phenyl)but-1-en-1-yl)phenyl)acrylic acid] | ++ (++ = a single % value ≧ 40%) | ≤ 100 | ≥ 40 | ≤ 100
O=C(O)/C=C/c1ccc(/C(=C(\c2ccc(F)cc2Cl)C2CCC2)c2ccc(N3CCOCC3)cc2)cc1 [Example 36, (E)-3-(4-((E)-2-(2-Chloro-4-fluorophenyl)-2-cyclobutyl-1-(4-morpholinophenyl)vinyl)phenyl)acrylic acid] | ++ (++ = a single % value ≧ 40%) | ≤ 100 | ≥ 40 | ≤ 100
